From US12440529B2, “Topical Croton lechleri compositions and their use in the treatment of a bacterial colonization or primary or secondary bacterial infection of an underlying skin disorder” (ALPHYN BIOLOGICS, INC., priority 2020, dated 2025) come the findings set out here.

Assay [1] has as its system S. pyogenes (Erythromycin and Tetracycline resistant strains). The assay is described as follows: MIC/MBC assay (2-fold microdilution, CAMHB with […] laked horse blood). The settings on record: Streptococcus pyogenes. In kind it is cell-based. The method, then: (§1) Tables 26 and 27 show an assay whose setup is same as what was used for screening S. aureus and P. aeruginosa (i.e. 2-fold microdilution). The 20 strains of S. pyogenes assayed were selected from the two rounds of antibiotic screening to identify Erythromycin and Tetracycline resistant strains. […] For this feasibility study, AB-101 Lot 1 and Lot 2 was used. P. aeruginosa ATCC 27853 was tested as a positive control for AB-101 activity.
A general note: In broth dilution the organism is exposed to a series of concentrations in liquid medium.

The subject of assay [2] is Pseudomonas aeruginosa. The assay is described as follows: In vitro MIC/MBC assay (2-fold microdilution), multi-drug resistant strain panel. It is filed as cell-based. From the text: Of the 20, 5 are known to be Verona integron-encoded metallo-beta-lactamase (VIM)—producing Pseudomonas aeruginosa which are drug resistant strains of Pseudomonas aeruginosa, another 5 are know to be Klebsiella pneumoniae carbapenemase (KPC) producing Pseudomonas aeruginosa strains which are drug resistant strains of Pseudomonas aeruginosa, and 4 are known to be IMP-Type Metallo-β-Lactamase (IMP))—producing Pseudomonas aeruginosa which are drug resistant strains of Pseudomonas aeruginosa. The 6 remaining strains are known to be antibiotic resistant and are listed simply as MDR strains. […]

The test system of assay [3] is MSSA strains (Mupirocin-resistant and Mupirocin-susceptible; QC ATCC 29213). The assay is described as follows: In vitro MIC/MBC assay (2-fold microdilution), S. aureus strain panel. In kind it is cell-based, Staphylococcus aureus. The method, then: AB-101 was tested against an extensive variety of bacterial strains, including Mupirocin-resistant MRSA, Mupirocin-resistant MSSA, Mupirocin-susceptible MSSA, Mupirocin-susceptible MRSA, and other skin-related pathogens.
Measures included the minimum inhibitory concentration (MIC) which is the lowest concentration of AB-101 that prevents visible growth of the bacterium or pathogen, and minimum bactericidal concentration (MBC) which is the lowest concentration of an antibacterial agent required to kill a bacterium.
AB-101 Lots 01, 02 and a purified extract of taspine for MIC are compared. […] Taspine may have additional synergistic benefits to be included in the whole extract in the final product for the effective treatment of a bacterial colonization or primary or secondary bacterial infection of an underlying skin disorder.
AB-101 Lots 01, 02 and a purified extract of taspine for MBC are compared. […] Taspine may have additional synergistic benefits to be included in the whole extract in the final product for the effective treatment of bacterial colonization or primary or secondary bacterial infection of an underlying skin disorder.
as §1

[4] abbreviates: S. pyogenes strain 1744264, read-out: MIC.
[5] abbreviates: S. pyogenes strain 1744265, read-out: MIC.
The mark [6] stands for this setting: S. pyogenes strain 1744271, read-out: MIC.
Where [7] appears, read: S. pyogenes strain 1744272, read-out: MIC.
Setting [8] is: S. pyogenes strain 1744275, read-out: MIC.
Where [9] appears, read: S. pyogenes strain 1744277, read-out: MIC.
Where [10] appears, read: S. pyogenes strain 1744285, read-out: MIC.
Setting [11] is: S. pyogenes strain 2065754, read-out: MIC.
[12] abbreviates: S. pyogenes strain 2065755, read-out: MIC.
Where [13] appears, read: S. pyogenes strain 2065756, read-out: MIC.
The mark [14] stands for this setting: S. pyogenes strain 2065757, read-out: MIC.
Setting [15] is: S. pyogenes strain 2065759, read-out: MIC.
[16] abbreviates: S. pyogenes strain 2065760, read-out: MIC.
Setting [17] is: S. pyogenes strain 2065761, read-out: MIC.
[18] abbreviates: S. pyogenes strain 2065762, read-out: MIC.
The mark [19] stands for this setting: S. pyogenes strain 2065763, read-out: MIC.
The mark [20] stands for this setting: S. pyogenes strain 2065765, read-out: MIC.
The mark [21] stands for this setting: S. pyogenes strain 20658748, read-out: MIC.
Where [22] appears, read: S. pyogenes strain 20658749, read-out: MIC.
Where [23] appears, read: S. pyogenes strain 20658750, read-out: MIC.

Each structure is given as a SMILES string. In brackets after ≈: the same amount, converted by molar mass. Read-outs that look alike come from different tables or passages of the source.

Turning to `CC[C@H]1OC(=O)[C@H](C)[C@@H](O[C@H]2C[C@@](C)(OC)[C@@H](O)[C@H](C)O2)[C@H](C)[C@@H](O[C@@H]2O[C@H](C)C[C@H](N(C)C)[C@H]2O)[C@](C)(O)C[C@@H](C)C(=O)[C@H](C)[C@@H](O)[C@]1(C)O` [Erythromycin], the minimal inhibitory concentration (MIC) (as a rule, the lowest concentration that inhibits growth of the organism) was 2 mg/L (≈ 2.73 µM) in assay [1] (setting [4]); over 16 mg/L in assay [1] (setting [5]); over 16 mg/L in assay [1] (setting [6]); over 16 mg/L in assay [1] (setting [7]); over 16 mg/L in assay [1] (setting [8]); 0.5 mg/L (≈ 0.681 µM) in assay [1] (setting [9]). Further, the minimal inhibitory concentration (MIC) is over 16 mg/L in assay [1] (setting [10]); over 16 mg/L in assay [1] (setting [11]); 2 mg/L (≈ 2.73 µM) in assay [1] (setting [12]); 2 mg/L (≈ 2.73 µM) in assay [1] (setting [13]); over 16 mg/L in assay [1] (setting [14]); 4 mg/L (≈ 5.45 µM) in assay [1] (setting [15]). For the same compound, the MIC in assay [1] (setting [16]) is 2 mg/L (≈ 2.73 µM); in assay [1] (setting [17]), over 16 mg/L; in assay [1] (setting [18]), 2 mg/L (≈ 2.73 µM); in assay [1] (setting [19]), 2 mg/L (≈ 2.73 µM); in assay [1] (setting [20]), over 16 mg/L; in assay [1] (setting [21]), 2 mg/L (≈ 2.73 µM). Further, the MIC in assay [1] (setting [22]) and in assay [1] (setting [23]) was 1 mg/L (≈ 1.36 µM) in each case.

On to `C[C@@H](O)[C@H]1C(=O)N2C(C(=O)O)=C(SCCN=CN)C[C@H]12` [Imipenem], for which the minimum inhibitory concentration (MIC) in assay [2] (ATCC27853, strain ATCC 27853, QC strain) was 2 mg/L (≈ 6.68 µM); in assay [2] (strain CDC 0064, MDR), over 64 mg/L; in assay [2] (strain CDC 0092, IMP), over 64 mg/L; in assay [2] (strain CDC 0103, IMP), over 64 mg/L; in assay [2] (strain CDC 0230, VIM), over 64 mg/L; in assay [2] (strain CDC 0231, KPC) it was over 64 mg/L. Further, the MIC in assay [2] (strain CDC 0239, VIM) is over 64 mg/L; in assay [2] (strain CDC 0241, IMP), over 64 mg/L; in assay [2] (strain CDC 0246, MDR), over 64 mg/L; in assay [2] (strain CDC 0250, MDR) it was over 64 mg/L; in assay [2] (strain CDC 0254, VIM) it was over 64 mg/L; in assay [2] (strain CDC 0255, VIM) it was over 64 mg/L. The MIC is 16 mg/L (≈ 53.4 µM) in assay [2] (strain CDC 0353, MDR); over 64 mg/L in assay [2] (strain CDC 0356, KPC); 16 mg/L (≈ 53.4 µM) in assay [2] (strain CDC 0357, MDR); over 64 mg/L in assay [2] (strain CDC 0439, IMP); over 64 mg/L in assay [2] (strain CDC 0441, KPC); 16 mg/L (≈ 53.4 µM) in assay [2] (strain CDC 0508, MDR). Also, the MIC was over 64 mg/L in assay [2] (strain CDC 0509, VIM); over 64 mg/L in assay [2] (strain CDC 0516, KPC); over 64 mg/L in assay [2] (strain CDC 0518, KPC).

For the compound `C/C(=C\C(=O)OCCCCCCCCC(=O)O)C[C@@H]1OC[C@H](C[C@@H]2O[C@H]2[C@@H](C)[C@H](C)O)[C@@H](O)[C@H]1O` [Mupirocin], the MIC in assay [3] (Staphylococcus aureus, strain CDC 461, MupirocinS, MSSA) is 0.25 to 1 mg/L; in assay [3] (Staphylococcus aureus, strain CDC 461; MupirocinS, MSSA), 0.25 to 1 mg/L; in assay [1] (setting [4]), 0.25 mg/L (≈ 0.499 µM); in assay [1] (setting [5]) it was 0.5 mg/L (≈ 0.999 µM); in assay [1] (setting [6]), 0.5 mg/L (≈ 0.999 µM); in assay [1] (setting [7]), 0.25 mg/L (≈ 0.499 µM). In addition, the MIC in assay [1] (setting [8]), in assay [1] (setting [9]), in assay [1] (setting [10]), in assay [1] (setting [11]), in assay [1] (setting [12]) and in assay [1] (setting [13]) was at most 0.125 mg/L each time. The MIC in assay [1] (setting [14]), in assay [1] (setting [15]), in assay [1] (setting [16]), in assay [1] (setting [17]), in assay [1] (setting [18]) and in assay [1] (setting [19]) was at most 0.125 mg/L in each case. Besides, the MIC in assay [1] (setting [20]), in assay [1] (setting [21]), in assay [1] (setting [22]) and in assay [1] (setting [23]) was at most 0.125 mg/L throughout.

With `CN(C)[C@@H]1C(O)=C(C(N)=O)C(=O)[C@@]2(O)C(O)=C3C(=O)c4c(O)cccc4[C@@](C)(O)[C@H]3C[C@@H]12` [Tetracycline], the MIC in assay [1] (setting [4]) is 0.25 mg/L (≈ 0.563 µM); in assay [1] (setting [5]), 8 mg/L (≈ 18 µM); in assay [1] (setting [6]), 16 mg/L (≈ 36 µM); in assay [1] (setting [7]), 8 mg/L (≈ 18 µM); in assay [1] (setting [8]), 0.25 mg/L (≈ 0.563 µM); in assay [1] (setting [9]) it was 0.25 mg/L (≈ 0.563 µM). Besides, the MIC in assay [1] (setting [10]) is over 16 mg/L; in assay [1] (setting [11]), 16 mg/L (≈ 36 µM); in assay [1] (setting [12]), over 16 mg/L; in assay [1] (setting [13]), over 16 mg/L; in assay [1] (setting [14]), 16 mg/L (≈ 36 µM); in assay [1] (setting [16]) it was over 16 mg/L. Also, the MIC was over 16 mg/L in assay [1] (setting [18]); 2 to 4 mg/L (≈ 4.5 to 9 µM) in assay [1] (setting [20]); 16 mg/L (≈ 36 µM) in assay [1] (setting [21]); 16 mg/L (≈ 36 µM) in assay [1] (setting [22]); over 16 mg/L in assay [1] (setting [23]).

Regarding `CN[C@H](CC(C)C)C(=O)N[C@H]1C(=O)N[C@@H](CC(N)=O)C(=O)N[C@H]2C(=O)N[C@H]3C(=O)N[C@H](C(=O)N[C@H](C(=O)O)c4cc(O)cc(O)c4-c4cc3ccc4O)[C@H](O)c3ccc(c(Cl)c3)Oc3cc2cc(c3O[C@@H]2O[C@H](CO)[C@@H](O)[C@H](O)[C@H]2O[C@H]2C[C@](C)(N)[C@H](O)[C@H](C)O2)Oc2ccc(cc2Cl)[C@H]1O` [Vancomycin], the MIC in assay [1] (S. pyogenes strain 1744264) is 0.5 mg/L (≈ 0.345 µM); in assay [1] (S. pyogenes strain 1744265), 8 mg/L (≈ 5.52 µM); in assay [1] (S. pyogenes strain 1744271) it was 0.5 mg/L (≈ 0.345 µM); in assay [1] (S. pyogenes strain 1744272) it was 1 mg/L (≈ 0.69 µM); in assay [1] (S. pyogenes strain 1744275), 0.25 to 0.5 mg/L (≈ 0.173 to 0.345 µM); in assay [1] (S. pyogenes strain 1744277), 4 mg/L (≈ 2.76 µM). Also, the MIC in assay [1] (S. pyogenes strain 1744285), in assay [1] (S. pyogenes strain 2065754), in assay [1] (S. pyogenes strain 2065755), in assay [1] (S. pyogenes strain 2065756), in assay [1] (S. pyogenes strain 2065757) and in assay [1] (S. pyogenes strain 2065759) was 0.5 mg/L (≈ 0.345 µM) in each case. Besides, the minimal inhibitory concentration (MIC) in assay [1] (S. pyogenes strain 2065760) is 0.5 mg/L (≈ 0.345 µM); in assay [1] (S. pyogenes strain 2065761), 0.5 mg/L (≈ 0.345 µM); in assay [1] (S. pyogenes strain 2065762) it was 0.5 mg/L (≈ 0.345 µM); in assay [1] (S. pyogenes strain 2065763) it was 0.5 mg/L (≈ 0.345 µM); in assay [1] (S. pyogenes strain 2065765), 2 to 4 mg/L (≈ 1.38 to 2.76 µM); in assay [1] (S. pyogenes strain 20658748) it was 0.25 to 0.5 mg/L (≈ 0.173 to 0.345 µM). Also, the MIC in assay [1] (S. pyogenes strain 20658749) and in assay [1] (S. pyogenes strain 20658750) was 0.5 mg/L (≈ 0.345 µM) throughout.
